In ChEMBL document CHEMBL6083277, “Discovery of SZJK-0421: A Novel Potent, Low Toxicity, Selective Second Generation of CRM1 Inhibitor for the Treatment of Both Hematological and Solid Tumors” (J Med Chem, 2024):
Calls of active or inactive are those of the source. The rule behind the calls is not given here.

Each compound was assayed on MM1.S (assay: Antiproliferative activity against human MM1.S cells assessed as inhibition of cell growth incubated for 72 hrs by celltiter-glo assay).
Type: functional, cell-based

Row | SMILES | IC50 [nM] | Activity
1 | NC(=O)/C=C(\c1cncnc1)c1cnn(-c2cc(C(F)(F)F)cc(C(F)(F)F)c2)c1 |  | inactive
2 | CON(C)C(=O)/C(=C/n1cnc(-c2cc(C(F)(F)F)cc(C(F)(F)F)c2)n1)c1cncnc1 | 75.7 | 
3 | NC(=O)/C=C(\c1cncc(F)c1)c1cnn(-c2cc(C(F)(F)F)cc(C(F)(F)F)c2)c1 |  | inactive
4 | COc1ncc(/C(=C\C(N)=O)c2cnn(-c3cc(C(F)(F)F)cc(C(F)(F)F)c3)c2)cn1 |  | inactive
5 | O=C(NNc1cnccn1)/C(=C/n1cnc(-c2cc(C(F)(F)F)cc(C(F)(F)F)c2)n1)c1cncnc1 | 328 | 
6 | NC(=O)/C(=C/n1ccc(-c2cc(C(F)(F)F)cc(C(F)(F)F)c2)n1)c1ccncc1 | 1430 | 
7 | CCONC(=O)/C(=C/n1cnc(-c2cc(C(F)(F)F)cc(C(F)(F)F)c2)n1)c1cncnc1 | 111 | 
8 | CONC(=O)/C(=C/n1cnc(-c2cc(C(F)(F)F)cc(C(F)(F)F)c2)n1)c1ccc(C#N)cc1 | 1040 | 
9 | NC(=O)/C(=C/n1cnc(-c2cc(C(F)(F)F)cc(C(F)(F)F)c2)n1)c1cncc(F)c1 | 259 | 
10 | CN(C)c1ncc(/C(=C\C(N)=O)c2cnn(-c3cc(C(F)(F)F)cc(C(F)(F)F)c3)c2)cn1 |  | inactive
11 | Cc1ccc(/C(=C\n2cnc(-c3cc(C(F)(F)F)cc(C(F)(F)F)c3)n2)C(N)=O)cn1 |  | inactive
12 | N#Cc1ccc(/C(=C\c2cnn(-c3cc(C(F)(F)F)cc(C(F)(F)F)c3)c2)C(N)=O)cn1 | 1410 | 
13 | NC(=O)/C=C(\c1ccc(F)nc1)c1cnn(-c2cc(C(F)(F)F)cc(C(F)(F)F)c2)c1 |  | inactive
14 | CN(C)c1ncc(/C(=C\c2cnn(-c3cc(C(F)(F)F)cc(C(F)(F)F)c3)c2)C(N)=O)cn1 |  | inactive
15 | N#Cc1ccc(/C(=C\C(N)=O)c2cnn(-c3cc(C(F)(F)F)cc(C(F)(F)F)c3)c2)cn1 |  | inactive
16 | Cc1cn(/C=C(/C(N)=O)c2cncnc2)nc1-c1cc(C(F)(F)F)cc(C(F)(F)F)c1 |  | inactive
17 | CN(C)c1ncc(/C(=C\n2cnc(-c3cc(C(F)(F)F)cc(C(F)(F)F)c3)n2)C(N)=O)cn1 | 1310 | 
18 | O=C(NC1CCCCCC1)/C(=C/n1cnc(-c2cc(C(F)(F)F)cc(C(F)(F)F)c2)n1)c1cncnc1 | 321 | 
19 | Cc1ccc(/C(=C\c2cnn(-c3cc(C(F)(F)F)cc(C(F)(F)F)c3)c2)C(N)=O)cn1 |  | inactive
20 | COC(=O)CNC(=O)/C(=C/n1cnc(-c2cc(C(F)(F)F)cc(C(F)(F)F)c2)n1)c1cncnc1 | 99.3 | 
21 | NC(=O)/C(=C/n1cnc(-c2cc(C(F)(F)F)nc(C(F)(F)F)c2)n1)c1cncnc1 | 226 | 
22 | NC(=O)/C=C(\c1ccc(C(F)(F)F)nc1)c1cnn(-c2cc(C(F)(F)F)cc(C(F)(F)F)c2)c1 |  | inactive
23 | Cc1ccc(/C(=C\C(N)=O)c2cnn(-c3cc(C(F)(F)F)cc(C(F)(F)F)c3)c2)cn1 |  | inactive
24 | NC(=O)/C(=C/c1cnn(-c2cc(C(F)(F)F)cc(C(F)(F)F)c2)c1)c1ccc(F)nc1 |  | inactive
25 | NC(=O)/C(=C/c1cnn(-c2cc(C(F)(F)F)cc(C(F)(F)F)c2)c1)c1cncnc1 | 1750 | 
26 | NC(=O)/C=C(\c1ccncc1)c1cnn(-c2cc(C(F)(F)F)cc(C(F)(F)F)c2)c1 |  | inactive
27 | O=C(NC12CC3CCC1CC(C3)C2)/C(=C/n1cnc(-c2cc(C(F)(F)F)cc(C(F)(F)F)c2)n1)c1cncnc1 (configuration not stated) | 323 | 
28 | NC(=O)/C(=C/c1cnn(-c2cc(C(F)(F)F)cc(C(F)(F)F)c2)c1)c1ccncc1 |  | inactive
29 | O=C(NCc1cccnc1)/C(=C/n1cnc(-c2cc(C(F)(F)F)cc(C(F)(F)F)c2)n1)c1cncnc1 | 1400 | 

Further compounds by falling IC50, results first:

Row | IC50 [nM] | SMILES | Activity
30 | 2360 | NC(=O)/C(=C/c1cnn(-c2cc(C(F)(F)F)cc(C(F)(F)F)c2)c1)c1cncc(F)c1 | 
31 | 2260 | COc1ncc(/C(=C\c2cnn(-c3cc(C(F)(F)F)cc(C(F)(F)F)c3)c2)C(N)=O)cn1 | 
32 | 1920 | NC(=O)/C(=C/n1ccc(-c2cc(C(F)(F)F)cc(C(F)(F)F)c2)n1)c1ccc(C(F)(F)F)nc1 | 
33 | 1700 | CONC(=O)/C(=C/n1cnc(-c2cc(OC(=O)CCNC(=O)CCCC[C@@H]3SC[C@@H]4NC(=O)N[C@@H]43)cc(C(F)(F)F)c2)n1)c1cncnc1 | 
34 | 1660 | NC(=O)/C(=C/n1cnc(-c2cc(C(F)(F)F)cc(C(F)(F)F)c2)n1)c1ccc(C(F)(F)F)nc1 | 
35 | 1500 | O=C(NCc1ccccn1)/C(=C/n1cnc(-c2cc(C(F)(F)F)cc(C(F)(F)F)c2)n1)c1cncnc1 | 
36 | 1470 | NC(=O)/C(=C/n1cnc(-c2cc(C(F)(F)F)cc(C(F)(F)F)c2)n1)c1ccc(F)nc1 | 
37 | 1340 | NC(=O)/C(=C/c1cnn(-c2cc(C(F)(F)F)cc(C(F)(F)F)c2)c1)c1ccc(C(F)(F)F)nc1 | 
38 | 1220 | N#Cc1cn(/C=C(/C(N)=O)c2cncnc2)nc1-c1cc(C(F)(F)F)cc(C(F)(F)F)c1 | 
39 | 1210 | NC(=O)/C(=C/n1ccc(-c2cc(C(F)(F)F)cc(C(F)(F)F)c2)n1)c1cncnc1 | 
40 | 1200 | CONC(=O)/C(=C/n1cnc(-c2cc(C(F)(F)F)cc(C(F)(F)F)c2)n1)c1ccn(C)n1 | 
41 | 990 | CONC(=O)/C(=C/n1cnc(-c2cc(C(F)(F)F)cc(C(F)(F)F)c2)n1)c1ccsc1 | 
42 | 880 | N#Cc1ccc(/C(=C\n2ccc(-c3cc(C(F)(F)F)cc(C(F)(F)F)c3)n2)C(N)=O)cn1 | 
43 | 646 | COc1ncc(/C(=C\n2cnc(-c3cc(C(F)(F)F)cc(C(F)(F)F)c3)n2)C(N)=O)cn1 | 
44 | 572 | O=C(NC1CCCCC1)/C(=C/n1cnc(-c2cc(C(F)(F)F)cc(C(F)(F)F)c2)n1)c1cncnc1 | 
45 | 485 | CONC(=O)/C(=C/n1cnc(-c2cc(C(F)(F)F)cc(C(F)(F)F)c2)n1)c1cnc(Cl)nc1 | 
46 | 447 | NC(=O)/C(=C/n1cnc(-c2cc(C(F)(F)F)cc(C(F)(F)F)c2)n1)c1cccc2cccnc12 | 

Row | IC50 [nM] | SMILES | Activity
47 | 346 | NC(=O)/C(=C/n1cnc(-c2cc(C(F)(F)F)cc(C(F)(F)F)c2)n1)c1ccccc1 | 
48 | 332 | CC(C)(C)NNC(=O)/C(=C/n1cnc(-c2cc(C(F)(F)F)cc(C(F)(F)F)c2)n1)c1cncnc1 | 
49 | 313 | NC(=O)/C(=C/n1cnc(-c2cc(C(F)(F)F)cc(C(F)(F)F)c2)n1)c1c[nH]c2ccccc12 | 
50 | 292 | O=C(NC1CCCC1)/C(=C/n1cnc(-c2cc(C(F)(F)F)cc(C(F)(F)F)c2)n1)c1cncnc1 | 
51 | 245 | Cc1ccc(/C(=C\n2cnc(-c3cc(C(F)(F)F)nc(C(F)(F)F)c3)n2)C(N)=O)cn1 | 
52 | 244 | CONC(=O)/C(=C/n1cnc(-c2cc(C(F)(F)F)cc(C(F)(F)F)c2)n1)c1cnc(OC)nc1 | 
53 | 207 | CONC(=O)/C(=C/n1cnc(-c2cc(C(F)(F)F)nc(C(F)(F)F)c2)n1)c1ccc(C)nc1 | 
54 | 202 | CONC(=O)/C(=C/n1cnc(-c2cc(C(F)(F)F)cc(C(F)(F)F)c2)n1)c1ccncc1 | 
55 | 198 | CONC(=O)/C(=C/n1cnc(-c2cc(C(F)(F)F)nc(C(F)(F)F)c2)n1)c1cncnc1 | 
56 | 189 | CNC(=O)/C(=C/n1cnc(-c2cc(C(F)(F)F)cc(C(F)(F)F)c2)n1)c1cncnc1 | 
57 | 185 | CONC(=O)/C(=C/n1cnc(-c2cc(C(F)(F)F)cc(C(F)(F)F)c2)n1)c1ccc(C#N)nc1 | 
58 | 178 | O=C(NC1CC1)/C(=C/n1cnc(-c2cc(C(F)(F)F)cc(C(F)(F)F)c2)n1)c1cncnc1 | 
59 | 176 | N#Cc1ccc(/C(=C\n2cnc(-c3cc(C(F)(F)F)cc(C(F)(F)F)c3)n2)C(N)=O)cn1 | 
60 | 166 | CONC(=O)/C(=C/n1cnc(-c2cc(C(F)(F)F)cc(C(F)(F)F)c2)n1)c1ccc(OC)nc1 | 
61 | 142 | O=C(NC1CCOCC1)/C(=C/n1cnc(-c2cc(C(F)(F)F)cc(C(F)(F)F)c2)n1)c1cncnc1 | 
62 | 128 | NC(=O)/C(=C/n1cnc(-c2cc(C(F)(F)F)cc(C(F)(F)F)c2)n1)c1ccncc1 | 
